Assay results from patent publication EP0095262A1, “Azabicycloalkane derivatives, their preparation and medicaments containing them” (BEECHAM GROUP PLC, priority 1982, dated 1983).

Test system: post-synaptic Dopamine (D.A.) receptors
Assay: Inhibition of apomorphine induced climbing in the mouse
Assay type: in vivo
Conditions: dose for 50% inhibition of climbing induced by apomorphine 1 mg/kg s.c., male CD1 mice
Procedure: The results in the following table are an illustration of the anti-psychotic activity of the present compounds as shown by Inhibition of Apormorphine Induced Climbing in the Mouse, a standard test.
The test is based on that described by Protais, P., Constantin, J. and Schwartz J.C. (1976), Psychopharmacology, 50, 1-6.
When mice are given a dose of 1 mg/kg apomorphine and then placed in an enclosed environment, such as an inverted wire cage, they are seen to climb around the walls. This behavioural phenomenon is thought to be a consequence of the stimulation of post-synaptic Dopamine (D.A.) receptors in the nucleus accumbens. Inhibition of apomorphine induced climbing is therefore indicative of post-synaptic D.A. receptor blockade in the accumbens.
Groups of lO male CD1 mice, weighing 25-30 g were pre-treated orally with either graded doses of the test compound or vehicle, at appropriate time intervals before the subcutaneous administration of a sub-maximal dose of apomorphine (1 mg/kg). Immediately after the apomorphine injection the mice were placed in wire 'climbing cages' and each animal was scored for climbing behavour at 10 and 20 minutes post apomorphine as follows:-
The total score was calculated for each group of mice and expressed as a percentage inhibition of climbing. [formula]
ED50's and fiducial limits were calculated according to the method of Litchfield and Wilcoxon, the ED50 being the dose that produced a 50% inhibition of apomorphine - induced climbing.

Compound | ED50 (p.o., ½ hr post dosing, 30 min) | ED50 (s.c., 4 hrs post dosing)
4-Amino-5-Chloro-2-Methoxy-N-[6'-endomethyl-9'-(4 methyl- benzyiyl)-9'-aza-bicyclo[3.3,1]-non-3-β- 1]benzamide [Example 6] | 1.1 p.o. ½ hr mg/kg | –
2,3-Dimethoxy-N-[7'-exo-Methyl-9'-(4-methylbenzyl)-9'-aza- bicycclo-[3.3.1]-non-3-β-yl]benzamide [Example 8] | 0.48 p.o. ½ hr mg/kg | –
4-Amino-5-chloro-2-methoxy-N-[6'-exo-hydroxy-8'-benzyl-8'-azabicyclol[3.2.1]-oct-3'-β-yl]-benzamide [Example 4] | – | 0.47 s.c. 4 hrs mg/kg
4-Amino-5 -Chloro-2-Methoxy-N-[7'-Methyl-9'-(4-Methylbenzyl)-9'-aza-bicyclo[3.3.1]-non-3-P-yl]benzamide [Example 5] | 0.6 p.o. ½ hr mg/kg | –
4-Amino-5-Chloro-2-Methoxy-N-[6'-exo-methl-9'-(4-methylbenzyl)-9'-aza-bicyclo[3.3.1]-non-3-β-yl]benzamide [Example 7] | 2.75 p.o. ½ hr mg/kg | –
2-[7'-exo-Methyl-9'-(4-methyl benzyl)-9'-aza-bicyclo[3.3.1] -non-3-β-yl]-phthalimidine [Example 9] | 2.65 p.o. ½ hr mg/kg | –
COc1cc(N)c(Cl)cc1C(=O)NC1CC2CC(C)C(C1)N2Cc1ccc(C)cc1 (stereo not drawn) [Example 1, 4-Amiho-5-chloro-2-rnethoxyy-N-[6'-exo-methyl-8'-(4-methylbenzyl)-8'-azabicycloro[3.2.1]-oct-3-β-yl]-benzamide] | 0.19 p.o. ½ hr mg/kg | –
